Common to all, as to assay type: cell-based
The subject of assay [1] is human prostate cancer cells PC3. As to the kind of experiment: MTT assay, proliferation of human prostate cancer cells PC3. As to conditions: for pIC50: Homo sapiens, 48 h, read-out: IC50 on the proliferation of human prostate cancer cells PC3. On the technique in general: Tetrazolium dyes change colour on reduction, which living cells bring about.
For assay [2], the system named is human gastric cancer cells MKN45. As to the kind of experiment: MTT assay, proliferation of human gastric cancer cells MKN45. Conditions: for pIC50: Homo sapiens, read-out: IC50 on the proliferation of human gastric cancer cells MKN45. The protocol: (§1) The original culture medium for human gastric cancer cells MKN45 was removed, and human gastric cancer cells MKN45 were rinsed with 2 mL of phosphate buffer saline (PBS), digested with 0.5 mL of pancreatic enzyme for 3 min. 2 mL of culture medium was added to the cells and the mixture was transferred to a centrifuge tube. The mixture was centrifuged (200 g) for 5 min. The supernatant was removed. 2 mL of culture medium was sprayed five times to the remaining solution. 0.5 mL of cell suspension was transferred to an Eppendorf (EP) tube and the cells were counted. The cells were cultured on a 96-well plate, each well having 2000 cells, 3 wells for each compound. The numbers of the required cells and wells and the amount of culture medium were calculated. The cells were diluted by the culture medium. 100 μL culture medium was added to each well and were evenly dispersed, each well containing 2000 cells. The cells were transferred to the wells using a pipette, and cultured in an incubator.
(§2) (2) Adding Compounds to Culture Medium
(§3) The original culture medium was discarded, and the mother liquor of each compound was diluted to final concentrations of 0, 5, 15, 30, 45 and 60 μM, respectively. Each diluent was uniformized. To each head of a multichannel pipette, 100 μL of the diluent was introduced. Three heads were employed. The diluents were added to 3 marked wells (the cells were undamaged) of a tilted 96-well plate, respectively. Different concentrations of diluents were added to three different marked wells and evenly mixed by alternately sucking and blowing with the multichannel pipette 3 times. The 96-well plate was shaken slightly twice, and cultured in a CO2 incubator.
(§4) The cells were cultured in different compounds for 48 h and were then detected. Specifically, a clean bench was turned on for 15 min, and phosphate buffer saline (PBS) was pre-heated in a warm water bath for 15 min. MTT was taken out of a refrigerator at −20 degrees, protected from light and thawed (MTT stock solution was 5 mg/mL). MTT and a culture medium were mixed evenly in a V-shaped groove to yield a mixture comprising 500 μg/mL MTT and a culture medium (a volume ratio thereof being 1:10). 100 μL of the prepared MTT mixture was added to each well of the 96-well plate using the multichannel pipette, and then incubated at 37° C. for an appropriate time (1 h), thereby reducing the MTT to formazan (purple crystals formed in the cells under a microscope, which were different in medicated cells and unmedicated cells). The upper liquid was removed with a white pipette tip attached to a vacuum pump. For each concentration of the compounds, 3 pipette tips were employed. After the incubation, the MTT mixture was discarded, and then 100 μL of DMSO was added to each well using the multichannel pipette. The 96-well plate was shaken in a shaker for 10 min (until the purple crystals were dissolved in the cells under the microscope).
The absorbance value of the cells was measured at a wavelength of 550 nm with a microplate reader. The survival rate of the cells treated with different concentrations of compounds was calculated to make a scatter plot. The IC50 results of each compound on the proliferation of human gastric cancer cells MKN45 were shown in Table 1, where Gossypol I-A9 is a control sample.

Assay [3] deals with human ovarian cancer cells SKOV3. As to the kind of experiment: MTT assay, proliferation of human ovarian cancer cells SKOV3. Conditions: for pIC50: Homo sapiens, read-out: IC50 on the proliferation of human ovarian cancer cells SKOV3. The protocol: as §1, with “ovarian” for “gastric”, “SKOV3” for “MKN45”
as §2
as §3, with “1, 2, 4, 8” for “5, 15, 30, 45”, “16” for “60”
as §4
The absorbance value of the resulting solution was detected at a wavelength of 550 nm with a microplate reader. The survival rate of cells treated with different concentrations of drugs was calculated in accordance with the requirements to make a scatter plot. The IC50 results of each compound on the proliferation of human ovarian cancer cells SKOV3 were shown in Table 2, wherein Gossypol I-A9 is a control sample.

For assay [4], the system named is human lung cancer cells A549. As to the kind of experiment: MTT assay, proliferation of human lung cancer cells A549. Conditions: Homo sapiens, A549, 48 h, read-out: IC50 on the proliferation of human lung cancer cells A5499. The protocol:
as §1, with “lung” for “gastric”, “A549” for “MKN45”
as §2
as §3, with “10, 20,” for “15,”, “60” for “45”, “80” for “60”
as §4
The absorbance value of the resulting solution was detected at a wavelength of 550 nm with a microplate reader. The survival rate of cells treated with different concentrations of drugs was calculated in accordance with the requirements to make a scatter plot. The IC50 results of each compound on the proliferation of human lung cancer cells A549 were shown in Table 3, where Gossypol I-A9 is a control sample.

pIC50: −log10 of the molar value. Read-outs that look alike come from different tables or passages of the source.

For the compound `COC(=O)c1ccc(-c2c(C)c(O)c(O)c(C=O)c2Cc2c(OC)cc(OC)cc2OC)cc1` [Compound I-49], the pIC50 was 4.88 in assay [1] (PC3, MTT, 0-32 μM); 5.51 in assay [2] (MKN-45, MKN45, MTT, 48 h, 0-60 μM); 5.23 in assay [3] (SK-OV-3, SKOV3, MTT, 48 h, 0-16 μM). Further, the “inhibitory effects on human prostate cancer cells PC3 (in words)” value in assay [1] (PC3, summary of Table 4) is “significant inhibitory effects”. Moreover, the “inhibitory effects on human gastric cancer cells MKN45 (in words)” value in assay [2] (MKN45, summary of Table 1) is listed as “significant inhibitory effects”. Besides, the “effect compared with control gossypol I-A9, MKN45” value in assay [2] (MKN45, versus gossypol I-A9) is listed as “better than the control gossypol I-A9”. Further, the “inhibitory effects on human ovarian cancer cells SKOV3 (in words)” value in assay [3] (SKOV3, summary of Table 2) is listed as “significant inhibitory effects”. In addition, the “effect compared with control gossypol I-A9, SKOV3” value in assay [3] (SKOV3, versus gossypol I-A9) is “superior to that of the gossypol I-A9”.

Take `Cc1cc2c(C(C)C)c(O)c(O)c(C=O)c2c(O)c1-c1c(C)cc2c(C(C)C)c(O)c(O)c(C=O)c2c1O` [I-A9, gossypol, reference compound]: the pIC50 is 5.00 in assay [1]; 4.81 in assay [2] (MKN-45, 48 h); 4.74 in assay [4]; 5.02 in assay [3] (SK-OV-3, 48 h).

(Values after patent publication US11376228B2 (Genifarm Laboratories Inc, priority 2018, dated 2022).)
